Test results: US20120029187A1, “HALOALKYLSULFONANILIDE DERIVATIVE” (Nissan Chemical Industries, Ltd., priority 2009, published 2012)

Key:
Assay type in all cases: in vivo
[1] = test system: giant foxtail; test: Test Example 3: herbicidal effects in soil treatment
Summary of the method: (§1)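 Seeds were sown in sterilized diluvial soil and covered with about 1.5 cm of soil. Compounds, formulated as emulsifiable concentrates and diluted with water, were sprayed evenly over the soil surface at set doses in g/a. Herbicidal effect was scored on a rating scale three weeks later.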

[2] = test system: velvetleaf; test: as above; settings: dose 3.2 g/a
Summary of the method: as §1

[3] = test system: barnyardgrass; test: as above
Summary of the method: as §1

[4] = test system: wild oat; test: as above
Summary of the method: as §1

[5] = test system: Italian ryegrass; test: as above
Summary of the method: as §1

[6] = test system: large crabgrass; test: as above
Summary of the method: as §1

[7] = test system: common ragweed; test: as above
Summary of the method: as §1

[8] = test system: common chickweed; test: as above
Summary of the method: as §1

[9] = test system: water foxtail; test: as above
Summary of the method: as §1

[10] = test system: common lambsquater; test: as above
Summary of the method: as §1

[11] = test system: redroot pigweed; test: as above
Summary of the method: as §1

[12] = test system: ducksalad; test: Test Example 2: herbicidal effects during the vegetation period under submerged conditions; settings: treatment during the vegetation period under submerged conditions; dose 2.52 g/a
Summary of the method: (§2)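 Barnyardgrass, bulrush and ducksalad were co-sown in alluvial soil flooded to 4 cm and grown in a greenhouse at 25 to 30° C. At the 1- or 2-leaf stage, water-diluted emulsifiable concentrates went onto the water surface at set doses (g/a). Herbicidal effect was scored three weeks later on a graded scale.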

[13] = test system: barnyardgrass; test: as above; settings: treatment during the vegetation period under submerged conditions; dose 2.52 g/a
Summary of the method: as §2

[14] = test system: bulrush; test: as above; settings: treatment during the vegetation period under submerged conditions; dose 2.52 g/a
Summary of the method: as §2

[15] = test system: beadstraw; test: Test Example 4: herbicidal effect in foliage treatment
Summary of the method: (§3)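 Post-emergence foliar spray of water-diluted emulsifiable concentrate at predetermined doses (g per are), applied to plants 14 days after sowing in sterile diluvial soil (greenhouse, 25 to 30° C). Visual scale rating of effect taken 3 weeks later.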

[16] = test system: giant foxtail; test: as above
Summary of the method: as §3

[17] = test system: velvetleaf; test: as above; settings: dose 3.2 g/a
Summary of the method: as §3

[18] = test system: barnyardgrass; test: as above
Summary of the method: as §3

[19] = test system: posumbu knotweed; test: as above; settings: dose 3.2 g/a
Summary of the method: as §3

[20] = test system: wild oat; test: as above
Summary of the method: as §3

[21] = test system: Italian ryegrass; test: as above
Summary of the method: as §3

[22] = test system: large crabgrass; test: as above
Summary of the method: as §3

[23] = test system: common ragweed; test: as above
Summary of the method: as §3

[24] = test system: common chickweed; test: as above; settings: three weeks after application
Summary of the method: as §3

[25] = test system: water foxtail; test: as above
Summary of the method: as §3

[26] = test system: common lambsquater; test: as above
Summary of the method: as §3

[27] = test system: redroot pigweed; test: as above; settings: three weeks after application
Summary of the method: as §3

[28] = test system: ducksalad; test: Test Example 1: herbicidal effects in preemergence treatment under submerged conditions; settings: dose 2.52 g/a
Summary of the method: (§4)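 Score 0–5 by mortality (5: ≥90%; 0: <5%), read 3 weeks post-application. Paddy-type cups: alluvial soil under 4 cm water, weeds seeded plus transplanted 2.5-leaf rice; diluted EC dosed onto water surface same day as sowing, g/a basis; greenhouse 25 to 30° C.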

[29] = test system: barnyardgrass; test: as above; settings: dose 2.52 g/a
Summary of the method: as §4

[30] = test system: bulrush; test: as above; settings: dose 2.52 g/a
Summary of the method: as §4

[31] = test system: transplanted rice; test: Test Example 1: preemergence treatment under submerged conditions, effect on crop; settings: dose 2.52 g/a
Summary of the method: as §4

[32] = dose 3.2 g/a, three weeks after application
[33] = dose 6.3 g/a, three weeks after application
[34] = dose 3.2 g/a, three weeks after the application
[35] = three weeks after the application

Structure (SMILES): CC1CN(Cc2ccccc2N(C(=O)OCCCl)S(=O)(=O)C(F)(F)F)C(=O)CO1 (centres unmarked) [Compound I-8]
- E: giant foxtail, herbicidal effect (evaluation scale 0-5) ([1]; dose 3.2 g/a): 4 (mortality of at least 70% and less than 90%)
- I: velvetleaf, herbicidal effect (evaluation scale 0-5) [2]: 5 (mortality of 90% or above (nearly complete death))
- A: barnyardgrass, herbicidal effect (evaluation scale 0-5) ([3]; dose 3.2 g/a): 5 (mortality of 90% or above (nearly complete death))
- F: wild oat, herbicidal effect (evaluation scale 0-5) ([4]; dose 3.2 g/a): 1 (mortality of at least 5% and less than 20%)
- H: Italian ryegrass, herbicidal effect (evaluation scale 0-5) ([5]; dose 3.2 g/a): 5 (mortality of 90% or above (nearly complete death))
- D: large crabgrass, herbicidal effect (evaluation scale 0-5) ([6]; dose 3.2 g/a): 5 (mortality of 90% or above (nearly complete death))
- J: common ragweed, herbicidal effect (evaluation scale 0-5) ([7]; dose 3.2 g/a): 5 (mortality of 90% or above (nearly complete death))
- N: common chickweed, herbicidal effect (evaluation scale 0-5) ([8]; dose 3.2 g/a): 5 (mortality of 90% or above (nearly complete death))
- G: water foxtail, herbicidal effect (evaluation scale 0-5) ([9]; dose 3.2 g/a): 5 (mortality of 90% or above (nearly complete death))
- L: common lambsquater, herbicidal effect (evaluation scale 0-5) ([10]; dose 3.2 g/a): 3 (mortality of at least 40% and less than 70%)
- K: redroot pigweed, herbicidal effect (evaluation scale 0-5) ([11]; dose 3.2 g/a): 5 (mortality of 90% or above (nearly complete death))
- C: ducksalad, herbicidal effect (evaluation scale 0-5) [12]: 5 (mortality of 90% or above (nearly complete death))
- A: barnyardgrass, herbicidal effect (evaluation scale 0-5) [13]: 5 (mortality of 90% or above (nearly complete death))
- B: bulrush, herbicidal effect (evaluation scale 0-5) [14]: 5 (mortality of 90% or above (nearly complete death))
- O: beadstraw, herbicidal effect [15, 32]: 4 (mortality of at least 70% and less than 90%)
- E: giant foxtail, herbicidal effect [16, 32]: 4 (mortality of at least 70% and less than 90%)
- I: velvetleaf, herbicidal effect ([17]; three weeks after application): 5 (mortality of 90% or above (nearly complete death))
- A: barnyardgrass, herbicidal effect [18, 32]: 5 (mortality of 90% or above (nearly complete death))
- M: posumbu knotweed, herbicidal effect ([19]; three weeks after application): 5 (mortality of 90% or above (nearly complete death))
- F: wild oat, herbicidal effect [20, 32]: 1 (mortality of at least 5% and less than 20%)
- H: Italian ryegrass, herbicidal effect [21, 32]: 4 (mortality of at least 70% and less than 90%)
- D: large crabgrass, herbicidal effect [22, 32]: 4 (mortality of at least 70% and less than 90%)
- J: common ragweed, herbicidal effect [23, 32]: 5 (mortality of 90% or above (nearly complete death))
- N: common chickweed, herbicidal effect ([24]; dose 3.2 g/a): 3 (mortality of at least 40% and less than 70%)
- G: water foxtail, herbicidal effect [25, 32]: 5 (mortality of 90% or above (nearly complete death))
- L: common lambsquater, herbicidal effect [26, 32]: 2 (mortality of at least 20% and less than 40%)
- K: redroot pigweed, herbicidal effect ([27]; dose 3.2 g/a): 4 (mortality of at least 70% and less than 90%)
- C: ducksalad, herbicidal effect (evaluation scale 0-5) [28]: 5 (mortality of 90% or above (nearly complete death))
- A: barnyardgrass, herbicidal effect (evaluation scale 0-5) [29]: 5 (mortality of 90% or above (nearly complete death))
- B: bulrush, herbicidal effect (evaluation scale 0-5) [30]: 5 (mortality of 90% or above (nearly complete death))

Structure (SMILES): CC(C)COC(=O)N(c1ccccc1CN1COC(C)(C)CC1=O)S(=O)(=O)C(F)(F)F [II-26]
- E: giant foxtail, herbicidal effect (evaluation scale 0-5) ([1]; dose 6.3 g/a): 4 (mortality of at least 70% and less than 90%)
- A: barnyardgrass, herbicidal effect (evaluation scale 0-5) ([3]; dose 6.3 g/a): 5 (mortality of 90% or above (nearly complete death))
- F: wild oat, herbicidal effect (evaluation scale 0-5) ([4]; dose 6.3 g/a): 0 (mortality of less than 5% (almost ineffective))
- H: Italian ryegrass, herbicidal effect (evaluation scale 0-5) ([5]; dose 6.3 g/a): 3 (mortality of at least 40% and less than 70%)
- D: large crabgrass, herbicidal effect (evaluation scale 0-5) ([6]; dose 6.3 g/a): 5 (mortality of 90% or above (nearly complete death))
- J: common ragweed, herbicidal effect (evaluation scale 0-5) ([7]; dose 6.3 g/a): 5 (mortality of 90% or above (nearly complete death))
- N: common chickweed, herbicidal effect (evaluation scale 0-5) ([8]; dose 6.3 g/a): 2 (mortality of at least 20% and less than 40%)
- G: water foxtail, herbicidal effect (evaluation scale 0-5) ([9]; dose 6.3 g/a): 5 (mortality of 90% or above (nearly complete death))
- L: common lambsquater, herbicidal effect (evaluation scale 0-5) ([10]; dose 6.3 g/a): 0 (mortality of less than 5% (almost ineffective))
- K: redroot pigweed, herbicidal effect (evaluation scale 0-5) ([11]; dose 6.3 g/a): 0 (mortality of less than 5% (almost ineffective))
- C: ducksalad, herbicidal effect (evaluation scale 0-5) [12]: 5 (mortality of 90% or above (nearly complete death))
- A: barnyardgrass, herbicidal effect (evaluation scale 0-5) [13]: 5 (mortality of 90% or above (nearly complete death))
- B: bulrush, herbicidal effect (evaluation scale 0-5) [14]: 5 (mortality of 90% or above (nearly complete death))
- a: transplanted rice, effect on crop (evaluation scale 0-5) [31]: 0 (mortality of less than 5% (almost ineffective))
- O: beadstraw, herbicidal effect [15, 33]: 4 (mortality of at least 70% and less than 90%)
- E: giant foxtail, herbicidal effect [16, 33]: 4 (mortality of at least 70% and less than 90%)
- A: barnyardgrass, herbicidal effect [18, 33]: 4 (mortality of at least 70% and less than 90%)
- F: wild oat, herbicidal effect [20, 33]: 0 (mortality of less than 5% (almost ineffective))
- H: Italian ryegrass, herbicidal effect [21, 33]: 3 (mortality of at least 40% and less than 70%)
- D: large crabgrass, herbicidal effect [22, 33]: 4 (mortality of at least 70% and less than 90%)
- J: common ragweed, herbicidal effect [23, 33]: 5 (mortality of 90% or above (nearly complete death))
- N: common chickweed, herbicidal effect ([24]; dose 6.3 g/a): 3 (mortality of at least 40% and less than 70%)
- G: water foxtail, herbicidal effect [25, 33]: 5 (mortality of 90% or above (nearly complete death))
- L: common lambsquater, herbicidal effect [26, 33]: 0 (mortality of less than 5% (almost ineffective))
- K: redroot pigweed, herbicidal effect ([27]; dose 6.3 g/a): 0 (mortality of less than 5% (almost ineffective))
- C: ducksalad, herbicidal effect (evaluation scale 0-5) [28]: 5 (mortality of 90% or above (nearly complete death))
- A: barnyardgrass, herbicidal effect (evaluation scale 0-5) [29]: 5 (mortality of 90% or above (nearly complete death))
- B: bulrush, herbicidal effect (evaluation scale 0-5) [30]: 5 (mortality of 90% or above (nearly complete death))

Structure (SMILES): O=C1CCCON1Cc1ccccc1NS(=O)(=O)C(F)(F)F [III-12]
- herbicidal effect, E: giant foxtail ([1]; dose 3.2 g/a): 5 (mortality of 90% or above (nearly complete death))
- herbicidal effect, I: velvetleaf [2]: 5 (mortality of 90% or above (nearly complete death))
- herbicidal effect, A: barnyardgrass ([3]; dose 3.2 g/a): 5 (mortality of 90% or above (nearly complete death))
- herbicidal effect, F: wild oat ([4]; dose 3.2 g/a): 2 (mortality of at least 20% and less than 40%)
- herbicidal effect, H: Italian ryegrass ([5]; dose 3.2 g/a): 3 (mortality of at least 40% and less than 70%)
- herbicidal effect, D: large crabgrass ([6]; dose 3.2 g/a): 5 (mortality of 90% or above (nearly complete death))
- herbicidal effect, J: common ragweed ([7]; dose 3.2 g/a): 5 (mortality of 90% or above (nearly complete death))
- herbicidal effect, G: water foxtail ([9]; dose 3.2 g/a): 5 (mortality of 90% or above (nearly complete death))
- herbicidal effect, L: common lambsquater ([10]; dose 3.2 g/a): 0 (mortality of less than 5% (almost ineffective))
- herbicidal effect, K: redroot pigweed ([11]; dose 3.2 g/a): 0 (mortality of less than 5% (almost ineffective))
- C: ducksalad, herbicidal effect (evaluation scale 0-5) [12]: 5 (mortality of 90% or above (nearly complete death))
- A: barnyardgrass, herbicidal effect (evaluation scale 0-5) [13]: 5 (mortality of 90% or above (nearly complete death))
- B: bulrush, herbicidal effect (evaluation scale 0-5) [14]: 5 (mortality of 90% or above (nearly complete death))
- a: transplanted rice, effect on crop (evaluation scale 0-5) [31]: 2 (mortality of at least 20% and less than 40%)
- O: beadstraw, herbicidal effect [15, 34]: 4 (mortality of at least 70% and less than 90%)
- E: giant foxtail, herbicidal effect [16, 34]: 3 (mortality of at least 40% and less than 70%)
- I: velvetleaf, herbicidal effect [17, 35]: 5 (mortality of 90% or above (nearly complete death))
- A: barnyardgrass, herbicidal effect [18, 34]: 5 (mortality of 90% or above (nearly complete death))
- M: posumbu knotweed, herbicidal effect [19, 35]: 0 (mortality of less than 5% (almost ineffective))
- F: wild oat, herbicidal effect [20, 34]: 0 (mortality of less than 5% (almost ineffective))
- H: Italian ryegrass, herbicidal effect [21, 34]: 3 (mortality of at least 40% and less than 70%)
- D: large crabgrass, herbicidal effect [22, 34]: 5 (mortality of 90% or above (nearly complete death))
- J: common ragweed, herbicidal effect [23, 34]: 4 (mortality of at least 70% and less than 90%)
- G: water foxtail, herbicidal effect [25, 34]: 5 (mortality of 90% or above (nearly complete death))
- L: common lambsquater, herbicidal effect [26, 34]: 0 (mortality of less than 5% (almost ineffective))
- C: ducksalad, herbicidal effect (evaluation scale 0-5) [28]: 5 (mortality of 90% or above (nearly complete death))
- A: barnyardgrass, herbicidal effect (evaluation scale 0-5) [29]: 5 (mortality of 90% or above (nearly complete death))
- B: bulrush, herbicidal effect (evaluation scale 0-5) [30]: 5 (mortality of 90% or above (nearly complete death))
